Test results published in PubChem BioAssay AID1259407 (Chemical Carcinogenesis Research Information System (CCRIS), 2018).
Active and inactive are the calls of the source. No rule for the calls is given here.

System: CCRIS mutagenicity, Ames/micronucleus/aberration tests
Experiment: CCRIS mutagenicity studies

Q: What does the source list for `CC(C)CCNc1snc2ccccc12`?
A: mutagenic call (Test System: AMES SALMONELLA TYPHIMURIUM, Strain/Indicator: TA98, Metabolic Activation: NONE, Method: STANDARD PLATE): inactive; negative; mutagenic call (Test System: AMES SALMONELLA TYPHIMURIUM, Strain/Indicator: TA98, Metabolic Activation: S-9, Method: STANDARD PLATE): inactive; negative; mutagenic call (Test System: AMES SALMONELLA TYPHIMURIUM, Strain/Indicator: TA100, Metabolic Activation: NONE, Method: STANDARD PLATE): inactive; negative; mutagenic call (Test System: AMES SALMONELLA TYPHIMURIUM, Strain/Indicator: TA100, Metabolic Activation: S-9, Method: STANDARD PLATE): inactive; negative; mutagenic call (Test System: AMES SALMONELLA TYPHIMURIUM, Strain/Indicator: TA1535, Metabolic Activation: NONE, Method: STANDARD PLATE): inactive; negative; mutagenic call (Test System: AMES SALMONELLA TYPHIMURIUM, Strain/Indicator: TA1535, Metabolic Activation: S-9, Method: STANDARD PLATE): inactive; negative; mutagenic call (Test System: AMES SALMONELLA TYPHIMURIUM, Strain/Indicator: TA1537, Metabolic Activation: NONE, Method: STANDARD PLATE): inactive; negative; mutagenic call (Test System: AMES SALMONELLA TYPHIMURIUM, Strain/Indicator: TA1537, Metabolic Activation: S-9, Method: STANDARD PLATE): inactive; negative

Q: For `C[N+](C)(CF)CCO`, which mutagenic call (Test System: Mouse lymphoma, Strain/Indicator: L5178Y (tk+/tk-), Metabolic Activation: None, Method: Suspension/plate) is on record?
A: inactive; negative

Q: What about the mutagenic call (Test System: Mouse lymphoma, Strain/Indicator: L5178Y (tk+/tk-), Metabolic Activation: Rat, Liver, S-9, Aroclor 1254, Method: Suspension/plate) of the same compound?
A: inactive; negative

Q: For `Fc1cc2cccnc2c2cccnc12`, which mutagenic call (Test System: AMES SALMONELLA TYPHIMURIUM, Strain/Indicator: TA100, Metabolic Activation: RAT, LIVER, S-9, PHENOBARBITAL AND 5,6-BENZOFLAVONE, Method: PREINCUBATION) is on record?
A: active; positive

Q: With `COc1cc2c(c3oc4cccc(OC(C)=O)c4c(=O)c13)C1C=COC1O2` (stereo unspecified) as the compound, how does the mutagenic call (Test System: AMES SALMONELLA TYPHIMURIUM, Strain/Indicator: TA98, Metabolic Activation: RAT, LIVER, S-9, PHENOBARBITAL, Method: STANDARD PLATE) read?
A: inactive; negative

Q: And the mutagenic call (Test System: AMES SALMONELLA TYPHIMURIUM, Strain/Indicator: TA100, Metabolic Activation: RAT, LIVER, S-9, PHENOBARBITAL, Method: STANDARD PLATE)?
A: active; positive

Q: Which mutagenic call (End Point: IN VITRO CHROMOSOMAL ABERRATIONS, Test System: CHL CELLS, Metabolic Activation: NONE) does the source give for `[N-]=[N+]=NCc1ccccc1` here?
A: inactive; negative

Q: And the mutagenic call (End Point: IN VITRO CHROMOSOMAL ABERRATIONS, Test System: CHL CELLS, Metabolic Activation: RAT, LIVER, S-9, SODIUM PHENOBARBITAL AND 5,6-BENZOFLAVONE)?
A: inactive; negative

Q: What about the mutagenic call (Test System: AMES SALMONELLA TYPHIMURIUM, Strain/Indicator: TA100, Metabolic Activation: RAT, LIVER, S-9, PCB, Method: PREINCUBATION) of the same compound?
A: active; positive
